Experimental data: ChEMBL document CHEMBL1201862, “PubChem BioAssay data set” (2004)
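Each compound was tested at five concentrations against cells in 96-well plates for 48 hours. Here, GI50 denotes the concentration required for 50% inhibition of growth.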 Calls of active or inactive are those of the source. Cut-off read from the data, not from the text of the source: active = GI50 up to about 1.1 µM and inactive = higher.

Columns and labels:
Experiment in all cases: DTP human tumour cell line panel, 48 h
[1] = tested on: TK-10
[2] = tested on: A549
[3] = tested on: HCC 2998
[4] = tested on: Malme-3M
[5] = tested on: Hs-578T
[6] = tested on: ACHN
[7] = tested on: NCI-H460
[8] = tested on: OVCAR-5
[9] = tested on: SF-268
[10] = tested on: HOP-62
[11] = tested on: OVCAR-4
[12] = tested on: SK-MEL-28
[13] = tested on: MDA-N
[14] = tested on: KM12
[15] = tested on: CCRF-CEM
[16] = tested on: NCI/ADR-RES
[17] = tested on: T47D
[18] = tested on: HOP-92
[19] = tested on: MCF7
[20] = tested on: UACC-257
[21] = tested on: K562
[22] = tested on: RPMI-8226
[23] = tested on: PC-3
[24] = tested on: MOLT-4
[25] = tested on: MDA-MB-435
[26] = tested on: SF-295
[27] = tested on: SNB-75
[28] = tested on: A498
[29] = tested on: BT-549
[30] = tested on: HCT-15
[31] = tested on: NCI-H23
[32] = tested on: HL-60
[33] = tested on: UO-31
[34] = tested on: MDA-MB-231
[35] = tested on: SK-MEL-5
[36] = tested on: OVCAR-8
[37] = tested on: HCT-116
[38] = tested on: HT-29
[39] = tested on: M14
[40] = tested on: SK-OV-3
[41] = tested on: U-251
[42] = tested on: OVCAR-3
[43] = tested on: NCI-H522
[44] = tested on: NCI-H226
[45] = tested on: SR
[46] = tested on: SN12C
[47] = tested on: EKVX
[48] = tested on: 786-0
[49] = tested on: DU-145
[50] = tested on: SF-539
[51] = tested on: SW-620
[52] = tested on: IGROV-1
[53] = tested on: SNB-19
[54] = tested on: UACC-62
[55] = tested on: COLO 205
[56] = tested on: RXF 393
[57] = tested on: LOX IMVI
[58] = tested on: SK-MEL-2
[59] = tested on: CAKI-1

Structure (SMILES): COC(=O)C1=C([C@H]2COC(C)(C)O2)[C@H]2C[C@@H]1[C@@H]1OC(C)(C)O[C@@H]12
- GI50 [1]: > 100 µM (inactive)
- GI50 [2]: > 100 µM (inactive)
- GI50 [3]: > 100 µM (inactive)
- GI50 [4]: > 100 µM (inactive)
- GI50 [5]: > 100 µM (inactive)
- GI50 [6]: > 100 µM (inactive)
- GI50 [7]: > 100 µM (inactive)
- GI50 [8]: > 100 µM (inactive)
- GI50 [9]: > 100 µM (inactive)
- GI50 [10]: > 100 µM (inactive)
- GI50 [11]: > 100 µM (inactive)
- GI50 [12]: > 100 µM (inactive)
- GI50 [13]: > 100 µM (inactive)
- GI50 [14]: > 100 µM (inactive)
- GI50 [15]: > 100 µM (inactive)
- GI50 [16]: > 100 µM (inactive)
- GI50 [17]: > 100 µM (inactive)
- GI50 [18]: 38.7 µM (inactive)
- GI50 [19]: > 100 µM (inactive)
- GI50 [20]: > 100 µM (inactive)
- GI50 [21]: > 100 µM (inactive)
- GI50 [22]: > 100 µM (inactive)
- GI50 [23]: > 100 µM (inactive)
- GI50 [24]: > 100 µM (inactive)
- GI50 [25]: > 100 µM (inactive)
- GI50 [26]: > 100 µM (inactive)
- GI50 [27]: > 100 µM (inactive)
- GI50 [28]: > 100 µM (inactive)
- GI50 [29]: > 100 µM (inactive)
- GI50 [30]: > 100 µM
- GI50 [31]: > 100 µM (inactive)
- GI50 [32]: > 100 µM (inactive)
- GI50 [33]: > 100 µM (inactive)
- GI50 [34]: > 100 µM (inactive)
- GI50 [35]: > 100 µM (inactive)
- GI50 [36]: > 100 µM (inactive)
- GI50 [37]: > 100 µM (inactive)
- GI50 [38]: > 100 µM (inactive)
- GI50 [39]: > 100 µM (inactive)
- GI50 [40]: > 100 µM (inactive)
- GI50 [41]: > 100 µM (inactive)
- GI50 [42]: > 100 µM (inactive)
- GI50 [43]: > 100 µM (inactive)
- GI50 [44]: > 100 µM (inactive)
- GI50 [45]: > 100 µM (inactive)
- GI50 [46]: > 100 µM (inactive)
- GI50 [47]: > 100 µM (inactive)
- GI50 [48]: > 100 µM (inactive)
- GI50 [49]: > 100 µM (inactive)
- GI50 [50]: > 100 µM (inactive)
- GI50 [51]: > 100 µM (inactive)
- GI50 [52]: > 100 µM (inactive)
- GI50 [53]: > 100 µM (inactive)
- GI50 [54]: > 100 µM (inactive)
- GI50 [55]: > 100 µM (inactive)
- GI50 [56]: > 100 µM (inactive)
- GI50 [57]: > 100 µM (inactive)
- GI50 [58]: > 100 µM (inactive)

Structure (SMILES): O=c1c2cc([N+](=O)[O-])ccc2n2n1Cc1ccccc1C2
- GI50 [59]: 75 µM (inactive)
- GI50 [1]: > 100 µM (inactive)
- GI50 [2]: 79.3 µM (inactive)
- GI50 [3]: > 100 µM (inactive)
- GI50 [4]: > 100 µM (inactive)
- GI50 [5]: 43.4 µM (inactive)
- GI50 [6]: > 100 µM (inactive)
- GI50 [7]: 40.6 µM (inactive)
- GI50 [9]: > 100 µM (inactive)
- GI50 [10]: > 100 µM (inactive)
- GI50 [11]: > 100 µM (inactive)
- GI50 [12]: > 100 µM (inactive)
- GI50 [13]: > 100 µM (inactive)
- GI50 [14]: > 100 µM (inactive)
- GI50 [15]: > 100 µM (inactive)
- GI50 [16]: 73.6 µM (inactive)
- GI50 [17]: 65.5 µM (inactive)
- GI50 [18]: > 100 µM (inactive)
- GI50 [19]: > 100 µM (inactive)
- GI50 [20]: > 100 µM (inactive)
- GI50 [21]: > 100 µM (inactive)
- GI50 [22]: > 100 µM (inactive)
- GI50 [23]: 32.4 µM (inactive)
- GI50 [24]: 35.8 µM (inactive)
- GI50 [25]: > 100 µM (inactive)
- GI50 [26]: > 100 µM (inactive)
- GI50 [27]: > 100 µM (inactive)
- GI50 [28]: 63.8 µM (inactive)
- GI50 [29]: 76.2 µM (inactive)
- GI50 [30]: > 100 µM
- GI50 [31]: > 100 µM (inactive)
- GI50 [32]: > 100 µM (inactive)
- GI50 [33]: 53.3 µM (inactive)
- GI50 [34]: > 100 µM (inactive)
- GI50 [35]: 84.3 µM (inactive)
- GI50 [36]: > 100 µM (inactive)
- GI50 [37]: > 100 µM (inactive)
- GI50 [38]: > 100 µM (inactive)
- GI50 [40]: > 100 µM (inactive)
- GI50 [41]: > 100 µM (inactive)
- GI50 [42]: > 100 µM (inactive)
- GI50 [43]: 64.6 µM (inactive)
- GI50 [44]: > 100 µM (inactive)
- GI50 [45]: 87.3 µM (inactive)
- GI50 [46]: > 100 µM (inactive)
- GI50 [47]: 31.5 µM (inactive)
- GI50 [48]: > 100 µM (inactive)
- GI50 [49]: > 100 µM (inactive)
- GI50 [50]: > 100 µM (inactive)
- GI50 [51]: > 100 µM (inactive)
- GI50 [52]: > 100 µM (inactive)
- GI50 [53]: > 100 µM (inactive)
- GI50 [54]: > 100 µM (inactive)
- GI50 [55]: > 100 µM (inactive)
- GI50 [56]: > 100 µM (inactive)
- GI50 [57]: > 100 µM (inactive)

Structure (SMILES): CC1=NN(c2ccccc2)C(=O)/C1=C\c1c(C)[nH]n(-c2ccccc2)c1=O
- GI50 [59]: > 100 µM (inactive)
- GI50 [1]: > 100 µM (inactive)
- GI50 [2]: > 100 µM (inactive)
- GI50 [3]: > 100 µM (inactive)
- GI50 [4]: 95.1 µM (inactive)
- GI50 [5]: > 100 µM (inactive)
- GI50 [6]: > 100 µM (inactive)
- GI50 [7]: > 100 µM (inactive)
- GI50 [8]: > 100 µM (inactive)
- GI50 [9]: > 100 µM (inactive)
- GI50 [10]: > 100 µM (inactive)
- GI50 [11]: > 100 µM (inactive)
- GI50 [12]: > 100 µM (inactive)
- GI50 [13]: > 100 µM (inactive)
- GI50 [14]: > 100 µM (inactive)
- GI50 [15]: 75.9 µM (inactive)
- GI50 [16]: > 100 µM (inactive)
- GI50 [17]: 36.1 µM (inactive)
- GI50 [18]: 27.1 µM (inactive)
- GI50 [19]: > 100 µM (inactive)
- GI50 [20]: > 100 µM (inactive)
- GI50 [21]: 38.8 µM (inactive)
- GI50 [22]: 28.4 µM (inactive)
- GI50 [23]: 77.4 µM (inactive)
- GI50 [24]: > 100 µM (inactive)
- GI50 [25]: > 100 µM (inactive)
- GI50 [26]: > 100 µM (inactive)
- GI50 [27]: > 100 µM (inactive)
- GI50 [28]: > 100 µM (inactive)
- GI50 [29]: > 100 µM (inactive)
- GI50 [30]: > 100 µM
- GI50 [31]: > 100 µM (inactive)
- GI50 [32]: > 100 µM (inactive)
- GI50 [33]: > 100 µM (inactive)
- GI50 [34]: > 100 µM (inactive)
- GI50 [35]: > 100 µM (inactive)
- GI50 [36]: > 100 µM (inactive)
- GI50 [37]: > 100 µM (inactive)
- GI50 [38]: 81.1 µM (inactive)
- GI50 [39]: > 100 µM (inactive)
- GI50 [40]: > 100 µM (inactive)
- GI50 [41]: > 100 µM (inactive)
- GI50 [42]: 54.5 µM (inactive)
- GI50 [43]: 53.7 µM (inactive)
- GI50 [44]: > 100 µM (inactive)
- GI50 [45]: > 100 µM (inactive)
- GI50 [46]: > 100 µM (inactive)
- GI50 [47]: > 100 µM (inactive)
- GI50 [48]: > 100 µM (inactive)
- GI50 [49]: > 100 µM (inactive)
- GI50 [50]: > 100 µM (inactive)
- GI50 [51]: 92.7 µM (inactive)
- GI50 [52]: > 100 µM (inactive)
- GI50 [53]: > 100 µM (inactive)
- GI50 [54]: > 100 µM (inactive)
- GI50 [55]: > 100 µM (inactive)
- GI50 [56]: 35.1 µM (inactive)
- GI50 [58]: > 100 µM (inactive)
